Assay results reported in US6440672B1, “Compositions and methods for the inhibition of MUC-5 mucin gene expression” (The Regents of the University of California, priority 1998, dated 2002).

Legend:
[1] = tested on: MUC 5AC 5' regulatory region (M4-2 luciferase reporter gene construct) in HM3 cells; assay: Inhibition of smoke-induced luciferase activity in HM3 cells transfected with M4-2 reporter construct; assay type: cell-based, human
Excerpt: A DNA fragment extending from −3752 bp to +68 bp was cloned into the MluI/Smal site of the pGL3 vector (Promega). pGL3 contains a luciferase gene downstream from the Smal site. This construct, referred to as M4-2, was deposited with the American Type Culture Collection as ATCC designation 98701. M4-2 was co-transfected with pcDNA3, containing the neomycin resistance gene, into the epithelial cell line HM3. G418-selected colonies were pooled, expanded, and used in luciferase assays.
HM3 colon carcinoma cells (Kuan, et al. (1987) Cancer Res. 47:5715-5724) or NCIH292 lung carcinoma cells (Levine, et al. (1995) Am. J Respir. Disease 12:196-204) were transfected with the 4.0 Kb MUC 5AC reporter gene construct, M4-2, or the −614 construct from Example 2. Transfection was carried out essentially as described in Felgner et al. (1987), supra. In brief, 2 μl lipofectamine and 1 μg DNA were added to, approximately 5×10^6 cells in 100 μl of Optimen (Gibco) and incubated at room, temperature for about 30 minutes. The mixture was then diluted to 1 ml and added to one culture well of a 6 well plate. G418-selected colonies were pooled, expanded and used in luciferase assays.
Environmental tobacco smoke was used as a mucomone. Culture medium DME-F 12 (Dulbecco's Modified Eagle's:Haam's F12 at 1:1) was exposed to tobacco smoke at various concentrations, for 6 hours. Exposure of the medium was carried out in open culture dishes in an enclosed container into which tobacco smoke produced by burning cigarettes was introduced in a controlled manner. Smoke concentration was measured in units of total suspended particles/ml (TSP/ml). Transfected cells were transferred into the smoke-exposed medium (in 6-well plates, 5×10^5 cells per well) and incubated for various times. The cells were then harvested, lysed and the luciferase activity determined as described in Li et al. (1997).
Several possible inhibitors of mucomone-induced mucin production were tested for their effect on the smoke induced luciferase activity described in Example 3. Inhibitors tested included the inhibitors Genistein (Calbiochem), anti-MEK (PD98059; Alessi et al. 1995), PKC-I (Bisindolymaleimide) and PKA-l (KT 5720, Calbiochem). HM3 cells transfected with the 4.0 KB MUC 5AC construct, M4-2, were incubated in smoke-exposed medium as described in Example 3. The inhibitors were added to the cells at the concentrations indicated in Table 2 for various times before the cells were transferred to the smoke medium. Additional inhibitor was added to the smoke medium after the cells were transferred.

[2] = tested on: MUC 2 gene transcription in epithelial cells; details: epithelial cells pre-incubated with inhibitor; cited from earlier work

CN(C)CCCn1cc(C2=C(c3c[nH]c4ccccc34)C(=O)NC2=O)c2ccccc21 [Bisindolymaleimide]
relative luciferase activity (RLA) induced by smoke medium, with vs without inhibitor ([1]; Bisindolymaleimide 2.5 nM to 10 nM, added 1 hr before smoke medium): lower

O=c1c(-c2ccc(O)cc2)coc2cc(O)cc(O)c12 [Genistein]
relative luciferase activity (RLA) induced by smoke medium, with vs without inhibitor ([1]; Genistein 30 μM, added 30 min-2 hr before smoke medium): lower
effect of pre-incubation on the PA LPS-induced increase in MUC 2 transcription [2]: abolished the increase in transcription

CCCCCCOC(=O)[C@]1(O)C[C@@H]2O[C@@]1(C)n1c3ccccc3c3c4c(c5c6ccccc6n2c5c31)C(=O)NC4 [KT 5720]
relative luciferase activity (RLA) induced by smoke medium, with vs without inhibitor ([1]; KT 5720 0.1 to 0.5 μM, added 15 min-1 hr before smoke medium): lower

COc1cccc(-c2cc(=O)c3ccccc3o2)c1N [PD98059]
relative luciferase activity (RLA) induced by smoke medium, with vs without inhibitor ([1]; PD98059 50-100 μM, added 1 hr before smoke medium): lower
